Data taken from PubChem BioAssay AID1845196 (Molecular Pharmacology Branch, DTP, NCI, 2023).

Test system: 292921-168-R tumor spheroid viability
Assay: Anticancer human tumor 292921-168-R patient-derived pancreatic carcinoma cell line growth inhibition
Conditions: spheroids with HUVEC and MSC; for IC50: curve of first compound; for viability, T/C: stronger effect = lower value
Summary of the method: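 Complex tumor spheroids combined malignant cells with endothelial cells and mesenchymal stem cells. DNA-damaging drugs and DNA repair inhibitors were tested alone and in combination, at half-log dilutions down from clinical Cmax (top 10 microM if Cmax unknown), 0.25% DMSO final.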
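Also: spheroids exposed to compounds for 7 days.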

CC1COCCN1c1cc(-c2ccnn2C)c2ccnc(-c3ccn[nH]3)c2n1 (stereo not given) + COc1cc2c(cc1O)CCNC21CSC2c3c(OC(C)=O)c(C)c4c(c3C(COC1=O)N1C(O)C3Cc5cc(C)c(OC)c(O)c5C(C21)N3C)OCO4
IC50 (second compound 30 pM): < 0.0316 µM
IC50 (second compound 94.9 pM): < 0.0316 µM
IC50 (second compound 0.0003 µM): < 0.0316 µM
IC50 (second compound 0.000949 µM): < 0.0316 µM
IC50 (second compound 0.003 µM): < 0.0316 µM
viability, T/C (second compound 30 pM, first compound 0.0316 µM): 17.2%
viability, T/C (second compound 30 pM, first compound 0.1 µM): 10.9%
viability, T/C (second compound 30 pM, first compound 0.316 µM): 10.4%
viability, T/C (second compound 30 pM, first compound 1 µM): 13%
viability, T/C (second compound 30 pM, first compound 3.16 µM): 14.3%
viability, T/C (second compound 30 pM, first compound 10 µM): 16.4%
viability, T/C (second compound 94.9 pM, first compound 0.0316 µM): 10.2%
viability, T/C (second compound 94.9 pM, first compound 0.1 µM): 7.28%
viability, T/C (second compound 94.9 pM, first compound 0.316 µM): 8.41%
viability, T/C (second compound 94.9 pM, first compound 1 µM): 11.8%
viability, T/C (second compound 94.9 pM, first compound 3.16 µM): 13.9%
viability, T/C (second compound 94.9 pM, first compound 10 µM): 16.9%
viability, T/C (second compound 0.0003 µM, first compound 0.0316 µM): 4.54%
viability, T/C (second compound 0.0003 µM, first compound 0.1 µM): 4.77%
viability, T/C (second compound 0.0003 µM, first compound 0.316 µM): 5.09%
viability, T/C (second compound 0.0003 µM, first compound 1 µM): 8.72%
viability, T/C (second compound 0.0003 µM, first compound 3.16 µM): 10.4%
viability, T/C (second compound 0.0003 µM, first compound 10 µM): 12.7%
viability, T/C (second compound 0.000949 µM, first compound 0.0316 µM): 1.76%
viability, T/C (second compound 0.000949 µM, first compound 0.1 µM): 1.36%
viability, T/C (second compound 0.000949 µM, first compound 0.316 µM): 2.19%
viability, T/C (second compound 0.000949 µM, first compound 1 µM): 2.16%
viability, T/C (second compound 0.000949 µM, first compound 3.16 µM): 1.68%
viability, T/C (second compound 0.000949 µM, first compound 10 µM): 2.07%
viability, T/C (second compound 0.003 µM, first compound 0.0316 µM): 0.19%
viability, T/C (second compound 0.003 µM, first compound 0.1 µM): 0.16%
viability, T/C (second compound 0.003 µM, first compound 0.316 µM): 0.17%
viability, T/C (second compound 0.003 µM, first compound 1 µM): 0.16%
viability, T/C (second compound 0.003 µM, first compound 3.16 µM): 0.16%
viability, T/C (second compound 0.003 µM, first compound 10 µM): 0.37%

Cc1sc2c(c1C)C(c1ccc(Cl)cc1)=NC(CC(=O)Nc1ccc(O)cc1)c1nnc(C)n1-2 (stereo not given) + Cn1nnc2c(C(N)=O)ncn2c1=O
IC50 (second compound 1 µM): 2.43 µM
IC50 (second compound 3.16 µM): 1.98 µM
IC50 (second compound 10 µM): 1.91 µM
IC50 (second compound 31.6 µM): 1.7 µM
IC50 (second compound 100 µM): 0.904 µM
viability, T/C (second compound 1 µM, first compound 0.00949 µM): 109%
viability, T/C (second compound 1 µM, first compound 0.03 µM): 111%
viability, T/C (second compound 1 µM, first compound 0.0949 µM): 117%
viability, T/C (second compound 1 µM, first compound 0.3 µM): 99.9%
viability, T/C (second compound 1 µM, first compound 0.949 µM): 74.6%
viability, T/C (second compound 1 µM, first compound 3 µM): 44.5%
viability, T/C (second compound 3.16 µM, first compound 0.00949 µM): 109%
viability, T/C (second compound 3.16 µM, first compound 0.03 µM): 117%
viability, T/C (second compound 3.16 µM, first compound 0.0949 µM): 113%
viability, T/C (second compound 3.16 µM, first compound 0.3 µM): 111%
viability, T/C (second compound 3.16 µM, first compound 0.949 µM): 68.9%
viability, T/C (second compound 3.16 µM, first compound 3 µM): 39.2%
viability, T/C (second compound 10 µM, first compound 0.00949 µM): 112%
viability, T/C (second compound 10 µM, first compound 0.03 µM): 115%
viability, T/C (second compound 10 µM, first compound 0.0949 µM): 111%
viability, T/C (second compound 10 µM, first compound 0.3 µM): 89%
viability, T/C (second compound 10 µM, first compound 0.949 µM): 77.3%
viability, T/C (second compound 10 µM, first compound 3 µM): 33.9%
viability, T/C (second compound 31.6 µM, first compound 0.00949 µM): 107%
viability, T/C (second compound 31.6 µM, first compound 0.03 µM): 114%
viability, T/C (second compound 31.6 µM, first compound 0.0949 µM): 109%
viability, T/C (second compound 31.6 µM, first compound 0.3 µM): 102%
viability, T/C (second compound 31.6 µM, first compound 0.949 µM): 67.4%
viability, T/C (second compound 31.6 µM, first compound 3 µM): 32.9%
viability, T/C (second compound 100 µM, first compound 0.00949 µM): 90.3%
viability, T/C (second compound 100 µM, first compound 0.03 µM): 106%
viability, T/C (second compound 100 µM, first compound 0.0949 µM): 95.3%
viability, T/C (second compound 100 µM, first compound 0.3 µM): 89.1%
viability, T/C (second compound 100 µM, first compound 0.949 µM): 48.3%
viability, T/C (second compound 100 µM, first compound 3 µM): 16.1%
